# Data taken from ChEMBL document CHEMBL3621204, “Dual biological functions of the apoptotic activity and anti-inflammatory effect by alcyonolide congeners from the Okinawan soft coral, Cespitularia sp” (Bioorg Med Chem Lett, 2015).
# The source made the active and inactive calls. No cut-off for these calls is given here.
# Columns and labels:
# RAW264.7 [1] = assay: Antiinflammatory activity in mouse RAW264.7 cells assessed as inhibition in LPS-stimulated nitric oxide production; format: functional, cell-based
# HCT-116 [2] = assay: Induction of apoptosis in human HCT116 cells assessed as activation of caspase 3/7 at 2.5 to 20 uM after 2 hrs 30 mins by luciferase reporter assay; format: functional, cell-based
# RAW264.7 [3] = assay: Anti-inflammatory activity in mouse RAW264.7 cells assessed as inhibition of LPS/IFN-gamma-stimulated COX2 mRNA expression by RT-PCR analysis; format: functional, cell-based
# HCT-116 [4] = assay: Induction of apoptosis in human HCT116 cells assessed as nuclear condensation at 100 uM by fluorescence assay; format: functional, cell-based
# RAW264.7 [5] = assay: Anti-inflammatory activity in mouse RAW264.7 cells assessed as inhibition of LPS/IFN-gamma-stimulated iNOS mRNA expression at 4 uM by RT-PCR analysis (reference value: 28.91 ng/uL); format: functional
# RAW264.7 [6] = assay: Anti-inflammatory activity in mouse RAW264.7 cells assessed as inhibition of LPS/IFN-gamma-stimulated iNOS mRNA expression by RT-PCR analysis; format: functional, cell-based
# HCT-116 [7] = assay: Cytotoxicity against human HCT116 cells; format: functional, cell-based
# RAW264.7 [8] = assay: Anti-inflammatory activity in mouse RAW264.7 cells assessed as inhibition of LPS/IFN-gamma-stimulated COX2 mRNA expression at 8 uM by RT-PCR analysis (reference value: 54.51 ng/uL); format: functional
# RAW264.7 [9] = assay: Anti-inflammatory activity in mouse RAW264.7 cells assessed as inhibition of LPS/IFN-gamma-stimulated COX2 mRNA expression at 4 uM by RT-PCR analysis (reference value: 54.51 ng/uL); format: functional
# RAW264.7 [10] = assay: Anti-inflammatory activity in mouse RAW264.7 cells assessed as inhibition of LPS/IFN-gamma-stimulated iNOS mRNA expression at 8 uM by RT-PCR analysis (reference value: 28.91 ng/uL); format: functional
# RAW264.7 [11] = assay: Anti-inflammatory activity in mouse RAW264.7 cells assessed as inhibition of LPS/IFN-gamma-stimulated COX2 mRNA expression at 2 uM by RT-PCR analysis (reference value: 54.51 ng/uL); format: functional
# RAW264.7 [12] = assay: Anti-inflammatory activity in mouse RAW264.7 cells assessed as inhibition of LPS/IFN-gamma-stimulated iNOS mRNA expression at 2 uM by RT-PCR analysis (reference value: 28.91 ng/uL); format: functional
# RAW264.7 [13] = assay: Cytotoxicity against LPS/IFN-gamma stimulated mouse RAW264.7 cells assessed as cell survival at 2 to 8 uM by MTT assay; format: cell-based; settings: raw264.7, 8 µM
Structure (SMILES),inhibition (RAW264.7 [1]),Activity (HCT-116 [2]),inhibition (RAW264.7 [3]),Activity (HCT-116 [4]),Activity (RAW264.7 [5]),inhibition (RAW264.7 [6]),IC50 (HCT-116 [7]),Activity (RAW264.7 [8]),Activity (RAW264.7 [9]),Activity (RAW264.7 [10]),Activity (RAW264.7 [11]),Activity (RAW264.7 [12]),Activity (RAW264.7 [13])
C=C(CCCC(C)=O)[C@@H]1[C@@H](OC(C)=O)OC=C2[C@H](CC=C(C)C)OC(=O)C[C@H]21,Dose-dependent effect,Active,Dose-dependent effect,Active,10.94 ng/µL,Dose-dependent effect,5.85 µM,13.75 ng/µL,21.48 ng/µL,8.25 ng/µL,37.36 ng/µL,24.62 ng/µL,Non-toxic
O=C1c2c(O)cc(O)cc2O[C@H](c2ccc(O)cc2)[C@H]1O,Dose-dependent effect,–,–,–,–,–,–,–,–,–,–,–,–
C=CC(=C)[C@@H]1[C@@H](OC(C)=O)OC=C2[C@H](CC=C(C)C)OC(=O)C[C@H]21,Dose-dependent effect,Active,Dose-dependent effect,Active,12.44 ng/µL,Dose-dependent effect,6.04 µM,15.93 ng/µL,31.77 ng/µL,6.58 ng/µL,37.1 ng/µL,20.66 ng/µL,Non-toxic
